The conditions of series [1]: Crystal; DSC.
A short description of series [2]: Molar enthalpy of transition or fusion. The conditions noted are these: Crystal; DSC.

± gives the expanded uncertainty stated by the source.

In the case of `CC(C)N1C(=O)N(c2ccccc2)CSC1=NC(C)(C)C` [buprofezin], the Triple point temperature in series [1] is 377.95 ± 1.2 K. Further, the “Molar enthalpy of transition or fusion” value in series [2] is 7.18 ± 0.239 kcal/mol.

These data come from the NIST ThermoML archive (doi:10.1021/acs.jced.8b01099).
